Marks after values point to notes of the source that are not given here.
What was measured:
[1] = test system: single-round HIV-based lentiviral vector in SupT1 cells; assay: Transduction efficiency of single-round HIV-based lentiviral vector (eGFP flow cytometry); type: cell-based; settings: dilution series, data not shown
Source text: In a next step we employed the recently developed LEDGINs, small molecules that inhibit LEDGF/p75-IN interaction and inhibit integration of HIV provirus (Christ et al., 2010, above) to investigate the impact of LEDGIN treatment on the HIV reservoir in cell culture. SupT1 cells were transduced with a single-round HIV-based lentiviral vector expressing the enhanced Green Fluorescent Protein (eGFP) reporter protein and treated with a dilution series of LEDGIN CX014442 (Christ et al 2012, above). […] In a first step, we determined integration site distribution of HIV-based viral vector integration sites (Gijsbers et al., 2009; Marshall et al., 2007). The number of integration sites is indicated for each data set (Table 2). First, we analysed lentiviral integration relative to a set of genomic features.

[2] = test system: HIV-based vector integration sites in SupT1 cells; assay: Integration site distribution of HIV-based vector near mapped genomic features; type: cell-based
[3] = test system: HIV-based vector integration sites in SupT1 cells; assay: Integration frequency near safe harbor criteria; type: cell-based
[4] = test system: HIV NL4-3.tCD34.R-.E- in SupT1 cells; assay: microbe, parasite or virus in culture; type: cell-based; settings: Human immunodeficiency virus 1, NL43, SUP-T1, read-out: inhibition of reactivation from latency
[5] = test system: HIV-1; assay: 'late' IC50 stated in legend of FIG. 8; type: cell-based; settings: Human immunodeficiency virus 1
[6] = test system: HIV-OGH double reporter virus in SupT1 cells; assay: Reactivation with TNFα, SupT1 cells infected with HIV-OGH double reporter virus; type: cell-based, HIV-1; settings: SupT1, 50 μM
Description: To corroborate these findings SupT1 cells were infected with the HIV-OGH double reporter virus under different LEDGIN (CX014442) concentrations. SupT1 cells were infected and reactivated under conditions similar to the experiment with HIV tCD34 (FIGS. 2 and 5). Data are represented in FIG. 6. Two different virus dilutions are depicted in panel A and B. In both graphs the percentage eGFP+, mKO2+ cells and overall % mKO2 positive cells is plotted after stimulation with DMSO or TNFα for 24 h. The dashed lines show an increase in percentage of eGFP+, mKO2+ cells after stimulation with TNFα compared to DMSO, while the overall percentage of mKO2 positive cells remains constant. LEDGIN treatment reduces the reactivation of eGFP+, mKO2+ cells in a concentration-dependent manner, with 50 μM of CX014442 reducing reactivation to only 1.5-2 fold (FIG. 6C).
11 days post infection the infected cells were reactivated from latency using TNFalpha (10 ng/mL, Immunosource), SAHA (0.3 to 3 μM, AIDS reagents), prostratin (5 μM, AIDS reagents) or PMA (0.3 μM, AIDS reagents) 24 hours prior to analysis by flow cytometry. Time courses and drug concentrations are indicated in the individual experiments. LEDGINs were synthesized by the Cistim/CD3-facility (courtesy of Dr. A. Marchand).

[7] = test system: OGH reporter virus in activated primary CD4+ T-cells; settings: 3 days post infection, trend
Source text: Peripheral Blood Mononuclear cells (PBMCs) were purified and CD4+ T-cells selectively enriched using Bi-specific MAb CD3.8 (AIDS reagents) for 5 days and infected with the OGH reporter virus. HIV infection was monitored 3 days post infection using flow cytometry analysis (FIG. 4).
Human PBMCs were purified, selectively enriched for CD4+ T cells using Bi-specific MAb CD3.8 and infected with the OGH reporter virus, in the presence or absence of LEDGINs (FIG. 7a,b).
Human peripheral blood mononuclear cells (PBMCs), obtained from the Red Cross Blood transfusion Center (Mechelen, Belgium) according to approved bioethical guidelines of our institute (S57175-IRB00002047), were purified from fresh buffy coats using lymphoprep density gradient centrifugation (Stem cell technologies). The CD4+ T cells were selectively enriched using Bi-specific MAb CD3.8 (0.5 μg/mL, AIDS reagents) for 5 days. Cells were cultured in RPMI 1640, 15% v/v FBS, 0.1% v/v Gentamicin, 100 U/ml IL-2 (Peprotech) (T-cell medium, TCM). Enriched total CD4+ primary T cells were infected with single round reporter virus for 2 h at 37° C., washed twice in TCM and reseeded in medium containing different concentrations of LEDGIN CX014442. HIV infection was monitored 48 h post infection using flow cytometry analysis.

[8] = test system: HIV OGH double reporter virus in SupT1 cells; type: cell-based, HIV-1; settings: SupT1, 3 days post infection, increasing concentrations
[9] = test system: NL4.3 virus in primary CD4+ T cells
Source text: Next we evaluated the multimodal effect of LEDGIN treatment on integration, assembly and reactivation in a multiple round reactivation model using WT HIV in resting CD4+ T-cells in order to model the in vivo situation. PHA/IL-2 activated primary (resting) CD4+ T cells were infected with NL4.3 virus in the presence of submicromolar concentrations of LEDGINs. At day four post infection (p.i.) LEDGINs were removed and cells were reseeded in the presence of PMA and PHA. Virus production upon reactivation was measured at day 7 p.i. by p24 ELISA.
Resting CD4+ T cells were purified using a custom-made EasySep negative selection kit (Stem Cell Technologies; 19052 cocktail, with the addition of CD25, CD69, and HLA-DR antibodies (catalogue number 19309VK)). […] Four days post-infection cells were washed twice using PBS and some cells were harvested for quantification of integrated proviral DNA using real time PCR (nested Alu-LTR PCR, (Butler et al., 2001; Lewin et al., 2008) normalized for input DNA by qPCR for the CCR5 gene as previously described (Zhang et al., 1999). Other cells were reseeded in the presence of 10 nM PMA (Sigma-Aldrich) together with 10 μg/mL PHA (Sigma-Aldrich) or left untreated. PHA activated feeder peripheral blood mononuclear cells (PBMCs) were added 24 h after the activating stimulus to amplify virus replication and enhance detection of the infection (Saleh et al., 2011). […]

[10] = test system: NL4-3.tCD34.R-.E-/VSV-G latent provirus in Nalm wt (+/c) cells; type: cell-based, HIV
[11] = test system: NL4-3.tCD34.R-.E-/VSV-G latent provirus in Nalm LEDGF/p75 KO (−/−) cells; type: cell-based, HIV
[12] = compound concentration 0.78125 μM
[13] = compound concentration 1.5625 μM
[14] = compound concentration 3.125 μM

Compound: CCCC(C(=O)O)c1c(C)nc2ccc(Cl)cc2c1-c1ccccc1 (centres unmarked) [CX014442, 2-(6-chloro-2-methyl-4-phenylquinolin-3-yl)pentanoic acid]
- % eGFP positive cells (transduction efficiency) [1]: dose-dependent decrease
- % CpG within 2 kb ([2]; compound concentration 0.54 μM): 2.33%
- % CpG within 4 kb ([2]; compound concentration 0.54 μM): 5.83%
- % DHS within 2 kb ([2]; compound concentration 0.54 μM): 24.07%
- % DHS within 4 kb ([2]; compound concentration 0.54 μM): 39.94%
- % TSS within 2 kb ([2]; compound concentration 0.54 μM): 2.00%
- % TSS within 4 kb ([2]; compound concentration 0.54 μM): 5.92%
- in RefGene ([2]; compound concentration 0.54 μM): 70.58%
- % CpG within 2 kb ([2]; compound concentration 1.5 μM): 2.37%
- % CpG within 4 kb ([2]; compound concentration 1.5 μM): 5.79%
- % DHS within 2 kb ([2]; compound concentration 1.5 μM): 20.94%
- % DHS within 4 kb ([2]; compound concentration 1.5 μM): 37.18%
- % TSS within 2 kb ([2]; compound concentration 1.5 μM): 2.41%
- % TSS within 4 kb ([2]; compound concentration 1.5 μM): 5.88%
- in RefGene ([2]; compound concentration 1.5 μM): 70.37%
- % CpG within 2 kb ([2]; compound concentration 3 μM): 1.73%
- % CpG within 4 kb ([2]; compound concentration 3 μM): 5.39%
- % DHS within 2 kb ([2]; compound concentration 3 μM): 21.49%
- % DHS within 4 kb ([2]; compound concentration 3 μM): 37.55%
- % TSS within 2 kb ([2]; compound concentration 3 μM): 1.97%
- % TSS within 4 kb ([2]; compound concentration 3 μM): 5.59%
- in RefGene ([2]; compound concentration 3 μM): 66.60%
- % CpG within 2 kb ([2]; compound concentration 6 μM): 2.97%
- % CpG within 4 kb ([2]; compound concentration 6 μM): 6.39%
- % DHS within 2 kb ([2]; compound concentration 6 μM): 21.78%
- % DHS within 4 kb ([2]; compound concentration 6 μM): 37.12%
- % TSS within 2 kb ([2]; compound concentration 6 μM): 3.03%
- % TSS within 4 kb ([2]; compound concentration 6 μM): 6.45%
- in RefGene ([2]; compound concentration 6 μM): 65.23** %
- % CpG within 2 kb ([2]; compound concentration 12 μM): 3.39%
- % CpG within 4 kb ([2]; compound concentration 12 μM): 7.35%
- % DHS within 2 kb ([2]; compound concentration 12 μM): 23.6%
- % DHS within 4 kb ([2]; compound concentration 12 μM): 38.57%
- % TSS within 2 kb ([2]; compound concentration 12 μM): 3.96** %
- % TSS within 4 kb ([2]; compound concentration 12 μM): 7.58%
- in RefGene ([2]; compound concentration 12 μM): 61.88*** %
- % CpG within 2 kb ([2]; compound concentration 25 μM): 4.97** %
- % CpG within 4 kb ([2]; compound concentration 25 μM): 10.26** %
- % DHS within 2 kb ([2]; compound concentration 25 μM): 22.19%
- % DHS within 4 kb ([2]; compound concentration 25 μM): 40.07%
- % TSS within 2 kb ([2]; compound concentration 25 μM): 4.30** %
- % TSS within 4 kb ([2]; compound concentration 25 μM): 8.94%
- in RefGene ([2]; compound concentration 25 μM): 60.93*** %
- % CpG within 2 kb ([2]; compound concentration 50 μM): 5.50%
- % CpG within 4 kb ([2]; compound concentration 50 μM): 11.72*** %
- % DHS within 2 kb ([2]; compound concentration 50 μM): 26.08%
- % DHS within 4 kb ([2]; compound concentration 50 μM): 40.67%
- % TSS within 2 kb ([2]; compound concentration 50 μM): 6.94%
- % TSS within 4 kb ([2]; compound concentration 50 μM): 12.68*** %
- in RefGene ([2]; compound concentration 50 μM): 54.55%
- epigenetic preference of integration for transcriptionally active regions ([2]; histone marks, data not shown): inverted in a dose dependent manner
- concentration at which a significant difference compared to wt in global integration preferences was reached ([2]; shift out of transcriptionally active regions): above 12 μM
- % in UCR [3, 12]: 6.36%
- % in transcript. Units [3, 12]: 74.95%
- % within 50 kb of TSS [3, 12]: 31.13%
- % within 300 kb of miRNAs [3, 12]: 25.54%
- % within 300 kb of onco [3, 12]: 38.15%
- Total % safe [3, 12]: 11.14%
- % in UCR [3, 13]: 7.24%
- % in transcript. Units [3, 13]: 75.11%
- % within 50 kb of TSS [3, 13]: 29.28%
- % within 300 kb of miRNAs [3, 13]: 22.52%
- % within 300 kb of onco [3, 13]: 35.47%
- Total % safe [3, 13]: 10.36%
- % in UCR [3, 14]: 7.77%
- % in transcript. Units [3, 14]: 71.91%
- % within 50 kb of TSS [3, 14]: 28.57%
- % within 300 kb of miRNAs [3, 14]: 23.34%
- % within 300 kb of onco [3, 14]: 35.45%
- Total % safe [3, 14]: 11.31%
- % in UCR ([3]; compound concentration 6.25 μM): 6.03%
- % in transcript. Units ([3]; compound concentration 6.25 μM): 70.48%
- % within 50 kb of TSS ([3]; compound concentration 6.25 μM): 29.46%
- % within 300 kb of miRNAs ([3]; compound concentration 6.25 μM): 21.76%
- % within 300 kb of onco ([3]; compound concentration 6.25 μM): 33.03%
- Total % safe ([3]; compound concentration 6.25 μM): 13.32%
- % in UCR ([3]; compound concentration 12.5 μM): 9.39%
- % in transcript. Units ([3]; compound concentration 12.5 μM): 67.42%
- % within 50 kb of TSS ([3]; compound concentration 12.5 μM): 31.33%
- % within 300 kb of miRNAs ([3]; compound concentration 12.5 μM): 24.89%
- % within 300 kb of onco ([3]; compound concentration 12.5 μM): 33.03%
- Total % safe ([3]; compound concentration 12.5 μM): 13.24%
- % in UCR ([3]; compound concentration 25 μM): 6.95%
- % in transcript. Units ([3]; compound concentration 25 μM): 66.06%
- % within 50 kb of TSS ([3]; compound concentration 25 μM): 29.80%
- % within 300 kb of miRNAs ([3]; compound concentration 25 μM): 21.52%
- % within 300 kb of onco ([3]; compound concentration 25 μM): 35.26%
- Total % safe ([3]; compound concentration 25 μM): 14.57%
- % in UCR ([3]; compound concentration 50 μM): 5.98%
- % in transcript. Units ([3]; compound concentration 50 μM): 59.57%
- % within 50 kb of TSS ([3]; compound concentration 50 μM): 32.54%
- % within 300 kb of miRNAs ([3]; compound concentration 50 μM): 22.25%
- % within 300 kb of onco ([3]; compound concentration 50 μM): 35.65%
- Total % safe ([3]; compound concentration 50 μM): 16.51%
- EC50 [4]: 7.24 µM
- IC50 [5]: 0.06 µM
- reactivation of eGFP+, mKO2+ cells after TNFα relative to DMSO [6]: 1.5-2 fold
- % latently infected cells [7]: increased
- % eGFP+, mKO2+ cells [8]: dose dependent decrease
- overall % mKO2 positive cells [8]: dose dependent decrease
- number of proviral DNA copies ([9]; 4 days p.i., submicromolar concentrations): reduced
- p24 production upon reactivation with PMA and PHA ([9]; day 7 p.i., average of two donors): reduced

Compound: O=C(CCCCCCC(=O)Nc1ccccc1)NO [SAHA, Suberoylanilide Hydroxamic acid]
- reactivation of tCD34 expression [10]: 3- to 4 fold
- reactivation of tCD34 expression [11]: 2 fold
